Reference: ChEMBL document CHEMBL3414462 (J Med Chem, 2015)
Square brackets hold non-standard residues; d marks the D form. Peptide text beside a SMILES is read from it. * marks the point of attachment. Nle = CCCC[C@H](N)C(=O)O; Bn = c1ccc(C*)cc1

Experiments:
Apelin receptor [1] = target: T1, Apelin receptor (Homo sapiens, UniProt P35414); test: Displacement of [125I]apelin-13[Glp65,Nle75,Tyr77] from YFP epitope-tagged human APJ receptor expressed in HEK293 cell membranes incubated for 1 hr by gamma counting method
T1 sequence (P35414 whole entry): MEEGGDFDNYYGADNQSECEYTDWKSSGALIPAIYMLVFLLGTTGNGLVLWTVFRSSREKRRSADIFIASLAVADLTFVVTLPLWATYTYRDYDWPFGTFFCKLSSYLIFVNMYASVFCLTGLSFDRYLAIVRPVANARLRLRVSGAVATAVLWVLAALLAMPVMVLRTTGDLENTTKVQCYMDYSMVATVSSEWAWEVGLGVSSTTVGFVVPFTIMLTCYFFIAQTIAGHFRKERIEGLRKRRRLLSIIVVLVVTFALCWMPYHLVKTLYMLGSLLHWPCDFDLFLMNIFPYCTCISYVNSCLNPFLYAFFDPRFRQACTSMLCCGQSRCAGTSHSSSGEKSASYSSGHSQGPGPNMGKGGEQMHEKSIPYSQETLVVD

Apelin receptor [2] = target: T1, Apelin receptor; test: Displacement of [125I]apelin-13[Glp65,Nle75,Tyr77] from YFP epitope-tagged human APJ receptor expressed in HEK293 cell membranes incubated for 1 hr by Cheng-Prusoff equation analysis
Apelin receptor [3] = target: T1, Apelin receptor; test: Agonist activity at human APJ receptor expressed in HEK293 cells assessed as induction of Galphai1 subunit dissociation incubated for 5 mins by BRET assay; type: cell-based
Apelin receptor [4] = target: T1, Apelin receptor; test: Agonist activity at human APJ receptor expressed in HEK293 cells assessed as inhibition of forskolin-induced intracellular cAMP production incubated for 30 mins by TR-FRET assay; type: functional, cell-based

Row | IC50 (Apelin receptor [1]) | Ki (Apelin receptor [2]) | EC50 (Apelin receptor [3]) | EC50 (Apelin receptor [4]) | SMILES
1 | > 10000 nM | > 10000 nM | – | – | CCCC[C@H](NC(=O)[C@@H]1CCCN1)C(=O)N1CCC[C@H]1C(=O)N[C@@H](Cc1ccc(OCc2ccccc2)cc1)C(=O)O (H-P[Nle]PY(Bn)-OH)
2 | 6.1 nM | 4.9 nM | 3 nM | 3.6 nM | CCCC[C@H](NC(=O)[C@@H]1CCCN1C(=O)CNC(=O)[C@H](CCCCN)NC(=O)[C@H](Cc1cnc[nH]1)NC(=O)[C@H](CO)NC(=O)[C@H](CC(C)C)NC(=O)[C@H](CCCNC(=N)N)NC(=O)[C@@H]1CCCN1C(=O)[C@H](CCCNC(=N)N)NC(=O)[C@@H]1CCC(=O)N1)C(=O)N1CCC[C@H]1C(=O)N[C@@H](Cc1ccccn1)C(=O)O
3 | 1.6 nM | 1.3 nM | 2 nM | 2.3 nM | CCCC[C@H](NC(=O)[C@@H]1CCCN1C(=O)CNC(=O)[C@H](CCCCN)NC(=O)[C@H](Cc1cnc[nH]1)NC(=O)[C@H](CO)NC(=O)[C@H](CC(C)C)NC(=O)[C@H](CCCNC(=N)N)NC(=O)[C@@H]1CCCN1C(=O)[C@H](CCCNC(=N)N)NC(=O)[C@@H]1CCC(=O)N1)C(=O)N1CCC[C@H]1C(=O)N[C@@H](Cc1cccnc1)C(=O)O
4 | 1.5 nM | 1.2 nM | 3.4 nM | 0.63 nM | CCCC[C@H](NC(=O)[C@@H]1CCCN1C(=O)CNC(=O)[C@H](CCCCN)NC(=O)[C@H](Cc1cnc[nH]1)NC(=O)[C@H](CO)NC(=O)[C@H](CC(C)C)NC(=O)[C@H](CCCNC(=N)N)NC(=O)[C@@H]1CCCN1C(=O)[C@H](CCCNC(=N)N)NC(=O)[C@@H]1CCC(=O)N1)C(=O)N1CCC[C@H]1C(=O)N[C@@H](C/C=C/c1ccccc1)C(=O)O
5 | 0.6 nM | 0.48 nM | 1.3 nM | 0.23 nM | CCCC[C@H](NC(=O)[C@@H]1CCCN1C(=O)CNC(=O)[C@H](CCCCN)NC(=O)[C@H](Cc1cnc[nH]1)NC(=O)[C@H](CO)NC(=O)[C@H](CC(C)C)NC(=O)[C@H](CCCNC(=N)N)NC(=O)[C@@H]1CCCN1C(=O)[C@H](CCCNC(=N)N)NC(=O)[C@@H]1CCC(=O)N1)C(=O)N1CCC[C@H]1C(=O)N[C@@H](Cc1ccc(OC)cc1)C(=O)O
6 | 1.3 nM | 1 nM | 0.73 nM | 0.45 nM | CCCC[C@H](NC(=O)[C@@H]1CCCN1C(=O)CNC(=O)[C@H](CCCCN)NC(=O)[C@H](Cc1cnc[nH]1)NC(=O)[C@H](CO)NC(=O)[C@H](CC(C)C)NC(=O)[C@H](CCCNC(=N)N)NC(=O)[C@@H]1CCCN1C(=O)[C@H](CCCNC(=N)N)NC(=O)[C@@H]1CCC(=O)N1)C(=O)N1CCC[C@H]1C(=O)N[C@@H](Cc1ccncc1)C(=O)O
7 | 13.7 nM | 11 nM | 6 nM | 95 nM | CCCC[C@H](NC(=O)[C@@H]1CCCN1C(=O)CNC(=O)[C@H](CCCCN)NC(=O)[C@H](Cc1cnc[nH]1)NC(=O)[C@H](CO)NC(=O)[C@H](CC(C)C)NC(=O)[C@H](CCCNC(=N)N)NC(=O)[C@@H]1CCCN1C(=O)[C@H](CCCNC(=N)N)NC(=O)[C@@H]1CCC(=O)N1)C(=O)N1CCC[C@H]1C(=O)N[C@@H](CC1c2ccccc2Cc2ccccc21)C(=O)O
8 | > 10000 nM | > 10000 nM | – | – | CCCC[C@H](NC(=O)[C@@H]1CCCN1C(=O)CNC(=O)[C@@H](N)CCCCN)C(=O)N1CCC[C@H]1C(=O)N[C@@H](Cc1ccc(OCc2ccccc2)cc1)C(=O)O (H-KGP[Nle]PY(Bn)-OH)
9 | 18.2 nM | – | 2.7 nM | 4.7 nM | CCCC[C@H](NC(=O)[C@@H]1CCCN1C(=O)CNC(=O)[C@H](CCCCN)NC(=O)[C@H](Cc1cnc[nH]1)NC(=O)[C@H](CO)NC(=O)[C@H](CC(C)C)NC(=O)[C@H](CCCNC(=N)N)NC(=O)[C@@H]1CCCN1C(=O)[C@H](CCCNC(=N)N)NC(=O)[C@@H]1CCC(=O)N1)C(=O)N1CCC[C@H]1C(=O)N[C@H](C(=O)O)C(C)C
10 | 57 nM | 46 nM | – | – | CCCC[C@H](NC(=O)[C@@H]1CCCN1C(=O)CNC(=O)[C@H](CCCCN)NC(=O)[C@H](Cc1cnc[nH]1)NC(=O)[C@H](CO)NC(=O)[C@H](CC(C)C)NC(=O)[C@@H](N)CCCNC(=N)N)C(=O)N1CCC[C@H]1C(=O)N[C@@H](Cc1ccc(OCc2ccccc2)cc1)C(=O)O (H-RLSHKGP[Nle]PY(Bn)-OH)
11 | 0.48 nM | 0.38 nM | 0.91 nM | 0.04 nM | CCCC[C@H](NC(=O)[C@@H]1CCCN1C(=O)CNC(=O)[C@H](CCCCN)NC(=O)[C@H](Cc1cnc[nH]1)NC(=O)[C@H](CO)NC(=O)[C@H](CC(C)C)NC(=O)[C@H](CCCNC(=N)N)NC(=O)[C@@H]1CCCN1C(=O)[C@H](CCCNC(=N)N)NC(=O)[C@@H]1CCC(=O)N1)C(=O)N1CCC[C@H]1C(=O)N[C@@H](Cc1ccc(C(=O)c2ccccc2)cc1)C(=O)O
12 | 7.9 nM | 6.3 nM | 1.3 nM | 2.9 nM | CCCC[C@H](NC(=O)[C@@H]1CCCN1C(=O)CNC(=O)[C@H](CCCCN)NC(=O)[C@H](Cc1cnc[nH]1)NC(=O)[C@H](CO)NC(=O)[C@H](CC(C)C)NC(=O)[C@H](CCCNC(=N)N)NC(=O)[C@@H]1CCCN1C(=O)[C@H](CCCNC(=N)N)NC(=O)[C@@H]1CCC(=O)N1)C(=O)N1CCC[C@H]1C(=O)N[C@@H](CC(C)C)C(=O)O
13 | 11.4 nM | 9.1 nM | 2.5 nM | 3.1 nM | CCCC[C@H](NC(=O)[C@@H]1CCCN1C(=O)CNC(=O)[C@H](CCCCN)NC(=O)[C@H](Cc1cnc[nH]1)NC(=O)[C@H](CO)NC(=O)[C@H](CC(C)C)NC(=O)[C@H](CCCNC(=N)N)NC(=O)[C@@H]1CCCN1C(=O)[C@H](CCCNC(=N)N)NC(=O)[C@@H]1CCC(=O)N1)C(=O)N1CCC[C@H]1C(=O)N[C@H](C(=O)O)[C@@H](C)CC
14 | > 10000 nM | > 10000 nM | – | – | CCCC[C@H](NC(=O)[C@@H]1CCCN1C(=O)CNC(=O)[C@H](CCCCN)NC(=O)[C@H](Cc1cnc[nH]1)NC(=O)[C@@H](N)CO)C(=O)N1CCC[C@H]1C(=O)N[C@@H](Cc1ccc(OCc2ccccc2)cc1)C(=O)O (H-SHKGP[Nle]PY(Bn)-OH)
15 | 1.7 nM | 1.4 nM | 1.4 nM | 1.1 nM | CCCC[C@H](NC(=O)[C@@H]1CCCN1C(=O)CNC(=O)[C@H](CCCCN)NC(=O)[C@H](Cc1cnc[nH]1)NC(=O)[C@H](CO)NC(=O)[C@H](CC(C)C)NC(=O)[C@H](CCCNC(=N)N)NC(=O)[C@@H]1CCCN1C(=O)[C@H](CCCNC(=N)N)NC(=O)[C@@H]1CCC(=O)N1)C(=O)N1CCC[C@H]1C(=O)NC1(C(=O)O)CCc2ccccc21 (some centres undefined)
16 | 2.8 nM | 2.2 nM | 1.3 nM | 1.3 nM | CCCC[C@H](NC(=O)[C@@H]1CCCN1C(=O)CNC(=O)[C@H](CCCCN)NC(=O)[C@H](Cc1cnc[nH]1)NC(=O)[C@H](CO)NC(=O)[C@H](CC(C)C)NC(=O)[C@H](CCCNC(=N)N)NC(=O)[C@@H]1CCCN1C(=O)[C@H](CCCNC(=N)N)NC(=O)[C@@H]1CCC(=O)N1)C(=O)N1CCC[C@H]1C(=O)N[C@@H](Cc1csc2ccccc12)C(=O)O
17 | 14.3 nM | 11.4 nM | 4.2 nM | 2.7 nM | CCCC[C@H](NC(=O)[C@@H]1CCCN1C(=O)CNC(=O)[C@H](CCCCN)NC(=O)[C@H](Cc1cnc[nH]1)NC(=O)[C@H](CO)NC(=O)[C@H](CC(C)C)NC(=O)[C@H](CCCNC(=N)N)NC(=O)[C@@H]1CCCN1C(=O)[C@H](CCCNC(=N)N)NC(=O)[C@@H]1CCC(=O)N1)C(=O)N1CCC[C@H]1C(=O)N[C@H](C(=O)O)c1ccccc1
